Experimental data reported in patent publication US20260033491A1, “FUNGAL SPORE FORMULATIONS INCLUDING CARRIER FLUIDS” (priority 2018, published 2026).
Marks after values point to notes of the source that are not given here.

Test system: Purpureocillium lilacinum spores
Assay: Spore viability (germination rate) of Purpureocillium lilacinum spores dispersed in fluid and stored at 30° C.
Assay type: cell-based
Settings: P. lilacinum spores in fluid
Protocol: 3 g of Purpureocillium lilacinum pure spore powder were transferred into a formulation vessel (IKA Type DT-20 mixing vessel with dispersion tool for Ultra Turrax) using a sterile spoon. 12 mL of fluid were added into the respective formulation vessel and dispersed using ultra turrax tube drive control for 1 min at 3000 rpm; change direction after 30 sec. After this 2.8 mL were transferred in four sample bottles (Wheaton Serum vial, Type I) leaving little headspace and closed tight using crimpneck caps (Macherey—Nagel type N 13). Afterwards all sample bottles were transferred to an incubator set at 30° C. and stored for a given time.
In regular intervals a sample was retrieved from the storage location and analyzed for spore viability. For this purpose, the original samples were thoroughly homogenized. Aliquots of 0.25 g or 250 μL of each sample were transferred into 50 mL falcon tubes. The tubes were filled up to 25 g using a sterile aqueous solution containing 2% Tween 80 and homogenized by vortexing to achieve the first dilution step (1:100 dilution). This dilution was used for further dilution and spotting on agar.
For these samples, an alternative dispersion/dilution method was applied where the oil phase was stripped from the spores first: 0.25 g or 250 μL of sample are weighted into a 2 mL Eppendorf tube, and 0.5 mL of 2% Tween 80 is added, and the mixture is transferred into an Eppendorf centrifuge where it is centrifuged for 1 min at 10.000 rpm. The supernatant (=upper oily phase) is discarded by using a pipette. […] 250 μL or 0.25 g of each sample were transferred into a sterile 50 mL Falcon tube. The tubes were filled up to 25 g using a sterile aqueous solution containing 2% Tween 80 and homogenized by vortexing to achieve the first dilution step (1:100 dilution). This dilution was used for further dilution and spotting on agar.
For evaluation of spore germination rate prepare a 1:30000 dilution based on the 1:100 dilution achieved by multiple automated dilution (pipetting robot, 96 well plate). Afterwards 12×12 cm agar plates were taken and spotted with 10 times 5 μL of each sample using an automated 12-Channel pipet. Wait until liquid is soaked up by agar and transfer agar plate to an incubator and incubate at 25° C. for 17 hours. Open the plate and place it under the microscope. Randomly chose one area per spot and record the number of germinated and non-germinated spores that are within the designated field. At least 200 spores per sample need to be evaluated. If needed count more than one field per spot.

| SMILES | spore viability [%] at day 1 [%] | spore viability [%] after 5-6 w (35-40 d) (storage at 30° C., 35-40 d) [%] | spore viability [%] after 3 m (87-92 d) (storage at 30° C., 87-92 d) [%] | spore viability [%] taken after 7 m of storage (storage at 30° C., 7 m) | spore viability [%] after 2 w (12-15 d) (storage at 30° C., 12-15 d) [%] | spore viability [%] after 1 m (27-28 d) (storage at 30° C., 27-28 d) [%] | spore viability [%] after 2 m (51-55 d) (storage at 30° C., 51-55 d) [%] |
| --- | --- | --- | --- | --- | --- | --- | --- |
| CCCCOC(=O)CCCCC(=O)OCCCC [Adimoll DB, di-n-Butyl adipate] | 98.9 | 97.5 | 89.8 |  |  |  |  |
| CC(=O)OCC(COC(C)=O)OC(C)=O [Triacetin, Glycerin triacetate] | 98.3 |  |  | 69.4* % | 97.9 | 96.2 | 90.8 |
